Reference: ChEMBL document CHEMBL1201862, “PubChem BioAssay data set” (2004)
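Briefly, cells in 96-well plates were exposed to five compound concentrations for 48 h, and endpoints were estimated by linear interpolation. Here, GI50 denotes the concentration required for 50% inhibition of growth.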 Active and inactive are the calls of the source. Cut-off read from the data, not from the text of the source: active = GI50 up to about 1.1 µM and inactive = higher. Non-standard residues stand in square brackets, D forms with d. Residues, ends and D or L forms follow the SMILES beside them. ξ: configuration not given here. Pen = CC(C)(S)[C@H](N)C(=O)O; ξL = CC(C)CC(N)C(=O)O

Experiments:
Experiment in all cases: NCI tumour cell line growth inhibition, 48 h
IGROV-1 = system: IGROV-1
NCI-H226 = system: NCI-H226
SF-539 = system: SF-539
NCI-H522 = system: NCI-H522
COLO 205 = system: COLO 205
SN12C = system: SN12C
HT-29 = system: HT-29
HOP-92 = system: HOP-92
HCT-116 = system: HCT-116
SNB-75 = system: SNB-75
UACC-257 = system: UACC-257
NCI-H460 = system: NCI-H460
NCI/ADR-RES = system: NCI/ADR-RES
HOP-62 = system: HOP-62
SK-MEL-2 = system: SK-MEL-2
K562 = system: K562
OVCAR-8 = system: OVCAR-8
KM12 = system: KM12
OVCAR-3 = system: OVCAR-3
RPMI-8226 = system: RPMI-8226

For `CSCC[C@H](NC(=O)C(CC(C)C)NC(=O)[C@H](Cc1c[nH]cn1)NC(=O)CNC(=O)[C@@H](NC(=O)[C@@H](C)NC(=O)[C@H](Cc1c[nH]c2ccccc12)NC(=O)[C@H](CCC(N)=O)NC(=O)[C@@H](N)CC(N)=O)C(C)(C)SC)C(N)=O` (stereo partly drawn) (H-NQW[dA][Pen](Me)GH[ξL]M-NH2), the GI50 (IGROV-1) was > 100 µM (inactive), the GI50 (NCI-H226) was > 100 µM (inactive) and the GI50 (SF-539) was > 100 µM (inactive). For the same compound, the GI50 (NCI-H522) was > 100 µM (inactive), the GI50 (COLO 205) was > 100 µM (inactive) and the GI50 (SN12C) was > 100 µM (inactive). For the same compound, the GI50 (HT-29) was > 100 µM (inactive), the GI50 (HOP-92) was > 100 µM (inactive) and the GI50 (HCT-116) was > 100 µM (inactive). The GI50 (SNB-75) was > 100 µM (inactive), the GI50 (UACC-257) was > 100 µM (inactive) and the GI50 (NCI-H460) was > 100 µM (inactive). The GI50 (NCI/ADR-RES) was > 100 µM (inactive), the GI50 (HOP-62) was > 100 µM (inactive) and the GI50 (SK-MEL-2) was > 100 µM (inactive). The GI50 (K562) was > 100 µM (inactive), the GI50 (OVCAR-8) was > 100 µM (inactive) and the GI50 (KM12) was > 100 µM (inactive). The GI50 (OVCAR-3) was > 100 µM (inactive).
With `C[S+](C)CC1OC(n2cnc3c(N)ncnc32)C(O)C1O` (stereo not drawn) the GI50 (IGROV-1) was > 225 µM (inactive), the GI50 (NCI-H226) was > 225 µM (inactive) and the GI50 (RPMI-8226) was > 225 µM (inactive). The GI50 (SF-539) was > 225 µM (inactive), the GI50 (NCI-H522) was > 225 µM (inactive) and the GI50 (COLO 205) was > 225 µM (inactive). For the same compound, the GI50 (SN12C) was > 178 µM (inactive), the GI50 (HT-29) was > 225 µM (inactive) and the GI50 (HOP-92) was > 225 µM (inactive). The GI50 (HCT-116) was > 225 µM (inactive), the GI50 (SNB-75) was > 225 µM (inactive) and the GI50 (UACC-257) was > 225 µM (inactive). The GI50 (NCI-H460) was > 225 µM (inactive), the GI50 (NCI/ADR-RES) was > 225 µM (inactive) and the GI50 (HOP-62) was > 225 µM (inactive). The GI50 (SK-MEL-2) was > 225 µM (inactive), the GI50 (K562) was > 225 µM (inactive) and the GI50 (OVCAR-8) was > 225 µM (inactive). The GI50 (KM12) was > 225 µM (inactive) and the GI50 (OVCAR-3) was > 225 µM (inactive).
In the case of `O=C(O)C(O)Cc1ccccn1` (stereo not drawn), the GI50 (IGROV-1) is reported as > 100 µM (inactive), the GI50 (NCI-H226) is reported as > 100 µM (inactive) and the GI50 (RPMI-8226) is reported as > 100 µM (inactive). For the same compound, the GI50 (NCI-H522) was > 100 µM (inactive), the GI50 (COLO 205) was > 100 µM (inactive) and the GI50 (HT-29) was > 100 µM (inactive). The GI50 (HOP-92) was > 100 µM (inactive), the GI50 (UACC-257) was > 100 µM (inactive) and the GI50 (NCI-H460) was > 100 µM (inactive). The GI50 (NCI/ADR-RES) was > 100 µM (inactive), the GI50 (HOP-62) was > 100 µM (inactive) and the GI50 (SK-MEL-2) was > 100 µM (inactive). The GI50 (K562) was > 100 µM (inactive), the GI50 (OVCAR-8) was > 100 µM (inactive) and the GI50 (KM12) was > 100 µM (inactive). The GI50 (OVCAR-3) was > 100 µM (inactive).
In the case of `O=C1C=C/C(=C/[C@H]2SSC=C[C@]23C=CC(=O)C3)C1`, the GI50 (IGROV-1) is reported as 17.8 µM (inactive), the GI50 (NCI-H226) is reported as 6.41 µM (inactive) and the GI50 (SF-539) is reported as 12.2 µM (inactive). The GI50 (NCI-H522) was 11 µM (inactive), the GI50 (COLO 205) was 13 µM (inactive) and the GI50 (SN12C) was 19.3 µM (inactive). For the same compound, the GI50 (HT-29) was 11 µM (inactive), the GI50 (HOP-92) was 20.6 µM (inactive) and the GI50 (HCT-116) was 7.36 µM (inactive). The GI50 (SNB-75) was 33.7 µM (inactive), the GI50 (UACC-257) was 28.1 µM (inactive) and the GI50 (NCI-H460) was 29.3 µM (inactive). The GI50 (NCI/ADR-RES) was 23.8 µM (inactive), the GI50 (HOP-62) was 27.9 µM (inactive) and the GI50 (SK-MEL-2) was 20 µM (inactive). For the same compound, the GI50 (K562) was 5.3 µM (inactive), the GI50 (OVCAR-8) was 25.9 µM (inactive) and the GI50 (KM12) was 21.3 µM (inactive). For the same compound, the GI50 (OVCAR-3) was 26.7 µM (inactive).
For `CC(=C(c1ccccc1)c1ccccc1)N1C(=O)CC(=O)N1C`, the GI50 (IGROV-1) was 18.3 µM (inactive), the GI50 (NCI-H226) was > 100 µM (inactive) and the GI50 (RPMI-8226) was 32.6 µM (inactive). The GI50 (SF-539) was 26.3 µM (inactive), the GI50 (COLO 205) was > 100 µM (inactive) and the GI50 (SN12C) was > 100 µM (inactive). The GI50 (HT-29) was > 100 µM (inactive), the GI50 (HOP-92) was 45.5 µM (inactive) and the GI50 (HCT-116) was 74.6 µM (inactive). The GI50 (SNB-75) was 67.6 µM (inactive), the GI50 (UACC-257) was > 100 µM (inactive) and the GI50 (NCI-H460) was 29.2 µM (inactive). For the same compound, the GI50 (NCI/ADR-RES) was > 100 µM (inactive), the GI50 (HOP-62) was 27.5 µM (inactive) and the GI50 (SK-MEL-2) was 16.7 µM (inactive). The GI50 (K562) was 55.5 µM (inactive), the GI50 (OVCAR-8) was 99.1 µM (inactive) and the GI50 (KM12) was 50.4 µM (inactive). The GI50 (OVCAR-3) was 32.4 µM (inactive).
With `CN(C)C(=O)C(F)(F)C(c1ccc(Br)cc1)C1C(=O)N(C)C(=O)N(C)C1=O` (stereo not drawn) the GI50 (NCI-H226) was > 100 µM (inactive), the GI50 (RPMI-8226) was > 100 µM (inactive) and the GI50 (COLO 205) was > 100 µM (inactive). For the same compound, the GI50 (HOP-92) was > 100 µM (inactive), the GI50 (HCT-116) was > 100 µM (inactive) and the GI50 (SNB-75) was > 100 µM (inactive). The GI50 (UACC-257) was > 100 µM (inactive), the GI50 (NCI-H460) was > 100 µM (inactive) and the GI50 (NCI/ADR-RES) was > 100 µM (inactive). For the same compound, the GI50 (HOP-62) was > 100 µM (inactive), the GI50 (SK-MEL-2) was > 100 µM (inactive) and the GI50 (K562) was > 100 µM (inactive). For the same compound, the GI50 (KM12) was > 100 µM (inactive) and the GI50 (OVCAR-3) was > 100 µM (inactive).
`CN(C)CCNC(=O)c1cc(Cl)cc2cc3ccccc3nc12` was tested, and the GI50 (IGROV-1) was 1.14 µM (inactive), the GI50 (NCI-H226) was 0.843 µM (active) and the GI50 (RPMI-8226) was 0.721 µM (active). For the same compound, the GI50 (SF-539) was 1.62 µM (inactive), the GI50 (COLO 205) was 0.433 µM (active) and the GI50 (SN12C) was 0.731 µM (active). The GI50 (HT-29) was 0.455 µM (active), the GI50 (HCT-116) was 0.445 µM (active) and the GI50 (SNB-75) was 2.27 µM (inactive). The GI50 (UACC-257) was 1.6 µM (inactive), the GI50 (NCI-H460) was 0.311 µM (active) and the GI50 (NCI/ADR-RES) was 0.766 µM (active). The GI50 (HOP-62) was 1.62 µM (inactive), the GI50 (SK-MEL-2) was 1.98 µM (inactive) and the GI50 (K562) was 1.01 µM (active). For the same compound, the GI50 (OVCAR-8) was 0.542 µM (active), the GI50 (KM12) was 1.17 µM (inactive) and the GI50 (OVCAR-3) was 4.71 µM (inactive).
In the case of `CN(C1=NCCO1)c1cccc2ccccc12`, the GI50 (IGROV-1) is reported as > 10 µM (inactive), the GI50 (NCI-H226) is reported as > 10 µM (inactive) and the GI50 (RPMI-8226) is reported as > 10 µM (inactive). The GI50 (SF-539) was > 10 µM (inactive), the GI50 (NCI-H522) was > 10 µM (inactive) and the GI50 (COLO 205) was > 10 µM (inactive). For the same compound, the GI50 (SN12C) was > 10 µM (inactive), the GI50 (HT-29) was > 10 µM (inactive) and the GI50 (HCT-116) was > 10 µM (inactive). For the same compound, the GI50 (SNB-75) was 9.29 µM (inactive), the GI50 (NCI-H460) was > 10 µM (inactive) and the GI50 (NCI/ADR-RES) was > 10 µM (inactive). For the same compound, the GI50 (HOP-62) was > 10 µM (inactive), the GI50 (SK-MEL-2) was > 10 µM (inactive) and the GI50 (K562) was > 10 µM (inactive). The GI50 (OVCAR-8) was > 10 µM (inactive), the GI50 (KM12) was > 10 µM (inactive) and the GI50 (OVCAR-3) was > 10 µM (inactive).
